Values joined by “and” are separate entries in the source; they are usually repeats but may differ in a detail not shown here. Identical values can stand only once. Inconclusive results and toxic doses are left out. No stated cut-off is given here; in the data, active means T/C of 150% or more; inactive means T/C below 125%.
System: L1210 leukemia ip in BDF1 mice, survival T/C
Assay: NCI In Vivo Anticancer Drug Screen. Data for tumor model L1210 Leukemia (intraperitoneal) in B6D2F1 (BDF1) mice
Settings: endpoint: mean survival time, higher = longer survival
Method in brief: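 Value reflects the ratio of survival in compound-treated mice to survival in vehicle-treated controls, with both groups carrying the same transplanted tumor.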

[1] = dose: 100.0 mg/kg/injection, schedule: Q04DX002 (ip), vehicle: Klucel (hydroxypropylcellulose) (HPC)
[2] = dose: 200.0 mg/kg/injection, schedule: Q01DX009 (ip), vehicle: Klucel (hydroxypropylcellulose) (HPC)
[3] = dose: 200.0 mg/kg/injection, schedule: Q04DX002 (ip), vehicle: Klucel (hydroxypropylcellulose) (HPC)
[4] = dose: 400.0 mg/kg/injection, schedule: Q04DX002 (ip), vehicle: Klucel (hydroxypropylcellulose) (HPC)
[5] = dose: 100.0 mg/kg/injection, schedule: Q04DX003 (ip), vehicle: saline with Tween-80
[6] = dose: 200.0 mg/kg/injection, schedule: Q04DX003 (ip), vehicle: saline with Tween-80
[7] = dose: 400.0 mg/kg/injection, schedule: Q04DX003 (ip), vehicle: saline with Tween-80
[8] = dose: 12.5 mg/kg/injection, schedule: Q04DX002 (ip), vehicle: saline
[9] = dose: 25.0 mg/kg/injection, schedule: Q04DX002 (ip), vehicle: saline
[10] = dose: 50.0 mg/kg/injection, schedule: Q01DX001 (ip), vehicle: saline
[11] = dose: 100.0 mg/kg/injection, schedule: Q04DX003 (ip), vehicle: Klucel (hydroxypropylcellulose) (HPC)
[12] = dose: 200.0 mg/kg/injection, schedule: Q04DX003 (ip), vehicle: Klucel (hydroxypropylcellulose) (HPC)
[13] = dose: 100.0 mg/kg/injection, schedule: Q01DX001 (ip), vehicle: Klucel (hydroxypropylcellulose) (HPC)
[14] = dose: 200.0 mg/kg/injection, schedule: Q01DX001 (ip), vehicle: Klucel (hydroxypropylcellulose) (HPC)
[15] = dose: 400.0 mg/kg/injection, schedule: Q01DX001 (ip), vehicle: Klucel (hydroxypropylcellulose) (HPC)
[16] = dose: 100.0 mg/kg/injection, schedule: Q01DX001 (ip), vehicle: saline
[17] = dose: 200.0 mg/kg/injection, schedule: Q01DX001 (ip), vehicle: saline
[18] = dose: 400.0 mg/kg/injection, schedule: Q01DX001 (ip), vehicle: saline
[19] = dose: 100.0 mg/kg/injection, schedule: Q04DX002 (ip), vehicle: saline with Tween-80
[20] = dose: 200.0 mg/kg/injection, schedule: Q04DX002 (ip), vehicle: saline with Tween-80
[21] = dose: 400.0 mg/kg/injection, schedule: Q04DX002 (ip), vehicle: saline with Tween-80

Measured: T/C

COc1cc(OC)c(NC(=S)Nc2ccccc2C(F)(F)F)cc1Cl
inactive: [1] 106 % of control | [2] 88 % of control | [3] 92 % of control | dose: 400.0 mg/kg/injection, schedule: Q01DX009 (ip), vehicle: Klucel (hydroxypropylcellulose) (HPC) 95 % of control | [4] 95 % of control

O=c1cc(Nc2ccccc2Cl)[nH]c(=O)[nH]1
inactive: [5] 104 % of control | [6] 98 % of control | [7] 95 % of control

SCc1ccc(Cl)cc1.[Pb]
inactive: dose: 100.0 mg/kg/injection, schedule: Q04DX002 (ip), vehicle: gum acacia 88 % of control | dose: 200.0 mg/kg/injection, schedule: Q04DX002 (ip), vehicle: gum acacia 98 % of control | dose: 400.0 mg/kg/injection, schedule: Q04DX002 (ip), vehicle: gum acacia 109 % of control

CC(CC(C#CC(CC(C)CC(C)(C)C)N(C)C)N(C)C)CC(C)(C)C (stereo unspecified)
inactive: dose: 100.0 mg/kg/injection, schedule: Q01DX009 (ip), vehicle: Klucel (hydroxypropylcellulose) (HPC) 96 % of control | [1] 111 % of control | [2] 93 % of control | [3] 93 % of control | [4] 90 % of control

C[CH2][Sn]([CH2]C)([O]S(=O)(=O)CC12CCC(CC1=O)C2(C)C)[O]S(=O)(=O)CC12CCC(CC1=O)C2(C)C
inactive: dose: 3.12 mg/kg/injection, schedule: Q01DX009 (ip), vehicle: saline 106 % of control | dose: 5.5 mg/kg/injection, schedule: Q01DX009 (ip), vehicle: saline 109 % of control | dose: 6.25 mg/kg/injection, schedule: Q01DX009 (ip), vehicle: saline 106 % of control and 107 % of control | dose: 6.25 mg/kg/injection, schedule: Q04DX003 (ip), vehicle: saline 112 % of control | dose: 8.2 mg/kg/injection, schedule: Q01DX009 (ip), vehicle: saline 118 % of control | dose: 11.0 mg/kg/injection, schedule: Q04DX003 (ip), vehicle: saline 113 % of control | dose: 12.5 mg/kg/injection, schedule: Q01DX009 (ip), vehicle: saline 106 % of control and 120 % of control | [8] 104 % of control | dose: 12.5 mg/kg/injection, schedule: Q04DX003 (ip), vehicle: saline 114 % of control | dose: 16.0 mg/kg/injection, schedule: Q04DX003 (ip), vehicle: saline 104 % of control | dose: 18.0 mg/kg/injection, schedule: Q01DX009 (ip), vehicle: saline 117 % of control | dose: 22.0 mg/kg/injection, schedule: Q04DX002 (ip), vehicle: saline 107 % of control | dose: 25.0 mg/kg/injection, schedule: Q01DX001 (ip), vehicle: saline 109 % of control | dose: 25.0 mg/kg/injection, schedule: Q01DX009 (ip), vehicle: saline 112 % of control and 115 % of control and 120 % of control | [9] 106 % of control | dose: 25.0 mg/kg/injection, schedule: Q04DX003 (ip), vehicle: saline 112 % of control and 117 % of control | dose: 35.0 mg/kg/injection, schedule: Q04DX002 (ip), vehicle: saline 116 % of control | dose: 35.0 mg/kg/injection, schedule: Q04DX003 (ip), vehicle: saline 113 % of control | dose: 45.0 mg/kg/injection, schedule: Q01DX001 (ip), vehicle: saline 120 % of control | [10] 114 % of control | dose: 50.0 mg/kg/injection, schedule: Q04DX003 (ip), vehicle: saline 102 % of control | dose: 55.0 mg/kg/injection, schedule: Q04DX003 (ip), vehicle: saline 112 % of control

Cc1cc(NC(=O)Oc2ccccc2)ccc1S(=O)(=O)F
inactive: dose: 75.0 mg/kg/injection, schedule: Q01DX001 (ip), vehicle: steriod suspending solution 102 % of control | dose: 150.0 mg/kg/injection, schedule: Q01DX001 (ip), vehicle: steriod suspending solution 96 % of control | dose: 300.0 mg/kg/injection, schedule: Q01DX001 (ip), vehicle: steriod suspending solution 98 % of control

CCCCN(CCCCS(=O)(=O)O)c1ccc(N=Nc2cc(Cl)ccc2Cl)cc1
inactive: [11] 94 % of control | [12] 105 % of control

Cc1ccc(Br)c2c1CCC2=O
inactive: [13] 93 % of control | [14] 100 % of control | [15] 93 % of control

O=C(CC1(O)CCCCC1)Nc1ccccc1
inactive: [10] 100 % of control | [16] 97 % of control | [17] 101 % of control | [18] 97 % of control

O=C(Nc1ccc([N+](=O)[O-])cc1)N(c1ccccc1)c1cc(N2CCOCC2)ccn1
inactive: [16] 91 % of control | [17] 91 % of control | [18] 88 % of control

O=C1c2ccccc2C(=O)c2[nH]ncc21
inactive: [19] 102 % of control | [20] 95 % of control | [21] 91 % of control

CC(C)NC(=O)C1CC2c3cccc4c3c(cn4CN(C)C)CC2N(C)C1 (stereo unspecified)
inactive: dose: 2.5 mg/kg/injection, schedule: Q04DX003 (ip), vehicle: saline 101 % of control | dose: 5.0 mg/kg/injection, schedule: Q04DX003 (ip), vehicle: saline 101 % of control | dose: 10.0 mg/kg/injection, schedule: Q04DX003 (ip), vehicle: saline 100 % of control | [8] 113 % of control | dose: 20.0 mg/kg/injection, schedule: Q04DX003 (ip), vehicle: saline 101 % of control | [9] 108 % of control

COC1OCC(OS(C)(=O)=O)C(OS(C)(=O)=O)C1OS(C)(=O)=O (stereo unspecified)
inactive: [5] 97 % of control and 96 % of control | [6] 97 % of control and 98 % of control | [7] 100 % of control and 98 % of control

CN(C)CC(=O)NCCCCCCCCCCNC(=O)CN(C)C
inactive: dose: 10.0 mg/kg/injection, schedule: Q01DX Z (ip), vehicle: saline 88 % of control | dose: 30.0 mg/kg/injection, schedule: Q01DX Z (ip), vehicle: saline 96 % of control | dose: 100.0 mg/kg/injection, schedule: Q01DX Z (ip), vehicle: saline 97 % of control | dose: 300.0 mg/kg/injection, schedule: Q01DX Z (ip), vehicle: saline 102 % of control

CCOC(=O)C(C(=O)OCC)c1cc(Cl)nnc1Cl
inactive: dose: 100.0 mg/kg/injection, schedule: Q04DX002 (ip), vehicle: saline 91 % of control | dose: 200.0 mg/kg/injection, schedule: Q04DX002 (ip), vehicle: saline 91 % of control

COc1ccc(N=NS(=O)O)cc1
inactive: [13] 98 % of control | [14] 97 % of control | [15] 95 % of control

Cc1nc(N)[nH]c(=O)c1CCCNc1ccc(F)cc1
inactive: dose: 25.0 mg/kg/injection, schedule: Q01DX001 (ip), vehicle: saline with Tween-80 95 % of control | dose: 50.0 mg/kg/injection, schedule: Q01DX001 (ip), vehicle: saline with Tween-80 93 % of control | dose: 100.0 mg/kg/injection, schedule: Q01DX001 (ip), vehicle: saline with Tween-80 92 % of control

COc1ccc(OC)c(NC(=O)N(Cc2ccccc2)Cc2ccccc2)c1
inactive: [11] 93 % of control | [12] 87 % of control | dose: 400.0 mg/kg/injection, schedule: Q04DX003 (ip), vehicle: Klucel (hydroxypropylcellulose) (HPC) 88 % of control

Nc1cc(NC(=O)c2ccc(Cl)cc2)ccc1S(=O)(=O)O
inactive: [19] 104 % of control | [20] 93 % of control | [21] 93 % of control

C=CCNc1nc(C)ncc1C(=O)OCC
inactive: dose: 75.0 mg/kg/injection, schedule: Q04DX003 (ip), vehicle: saline with Tween-80 94 % of control | dose: 150.0 mg/kg/injection, schedule: Q04DX003 (ip), vehicle: saline with Tween-80 92 % of control | dose: 300.0 mg/kg/injection, schedule: Q04DX003 (ip), vehicle: saline with Tween-80 92 % of control

From PubChem BioAssay AID248 (DTP/NCI, 2004)
